Reference: US4820873A, “Pyrene derivatives” (priority 1984, dated 1989)
Counter-ions that a name gives are not always drawn.

Assays:
LD20 in the P388/0 test = type: in vivo, CD2-F1 mice; design: LD20: dose in mg/kg body weight; conditions: intraperitoneal, days 1, 5, 9, doses are on a mg/kg basis; for MTD: mouse, in vivo, ip, read-out: highest nontoxic dose (LD20 column, values in parentheses; LD20 was not determined)
Protocol: CD2-F1 mice, of the same sex, weighing 20±3 g, are used for this test. Control and test animals are injected intraperitoneally with a suspension of ~10^6 viable P388/0 tumor cells on day 0. In each test, several dose levels which bracket the LD20 of the compound are evaluated; each dose level group contains 6 animals. The test compounds are prepared either in physiologic saline containing 0.05% Tween 80 or distilled water containing 5% dextrose and are administered intraperitoneally on days 1, 5, and 9 relative to tumor implant. Doses are on a mg/kg basis according to individual animals' body weights. The day of death for each animal is recorded, the median identified for each group and the ratios of median survival time for treated (T)/control (C) groups are calculated. The criterion for activity is T/C×100≥120%.

[1] = tested on: Mycoplasma smegmatis (S3264); experiment: Antibacterial screening, Mycoplasma smegmatis, agar dilution assay; type: cell-based
Text: (§1) Antibacterial testing against Mycoplasma smegmatis (S3264) and Streptococcus pyogens (CN10) was done with slight modifications using standard agar dilution assays as outlined in Manual of Clinical Microbiology, Second Ed., E. H. Lennette, E. H. Spaulding and J. P. Truant Eds., American Society for Microbiology, Washington, DC, 1974.

[2] = tested on: Streptococcus pyogenes (CN10); experiment: Antibacterial testing, Streptococcus pyogenes, agar dilution assay; type: cell-based
Text: as §1

[3] = tested on: Candida albicans (CN1863); experiment: Antifungal screening, Candida albicans, broth and agar dilution assays; type: cell-based; conditions: Medium: Wellcotest sensitivity test agar plus 7% lysed horse blood
Text: Antifungal testing against Candida albicans (CN1863) was done with slight modifications using a combination of broth and agar dilution assays as outlined in Laboratory Handbook of Medical Mycology, Chapter 6, pages 441-446, M. R. McGinnis, Academic Press, New York, NY, 1980.
Medium: Wellcotest* sensitivity test agar plus 7% lysed horse blood.

Trichomonas vaginalis = experiment: Antiprotozoal testing, Trichomonas vaginalis (in vitro); type: cell-based; conditions: Stenton or Modified Diamond's medium, read-out: Result (screen code, inhibition); for inhibition at 40 µg/mL: 40 mg/L
Text: Antiprotozoal testing against Trichomonas vaginalis was done using methods outlined by R. M. Michaels in Advances in Chemotherapy, 3, 39-108 (1968).
(Stenton or Modified Diamond's medium)

[4] = tested on: Nippostrongylus brasiliensis (Immature - free living stages); experiment: Anthelmintic screening, Nippostrongylus brasiliensis; type: cell-based
Text: Anthelmintic testing against Nippostrongylus brasiliensis was done using methods as outlined in D. C. Jenkins, R. Armitage, and T. S. Carrington, Zetschrift fur Parasitenkunde 63, 261-269 (1980).

Eimeria tenella = experiment: Antiprotozoal screening, Eimeria tenella (in vitro); type: cell-based; conditions: read-out: Result (screen code, inhibition); for inhibition at 5 µg/mL: 5 mg/L
Text: Antiprotozoal testing against Eimeria tenella was done using methods outlined in V. S. Latter and D. Wilson, Parasitology 79, 169 (1979).

[5] = tested on: Brugia pahangi microfilaria; experiment: Screening against Brugia pahangi microfilaria (in vitro); type: cell-based; conditions: for inhibition at 12.5 µg/mL: 12.5 mg/L
Text: Anthelmintic testing against Brugia pahangi was done using methods outlined in D. A. Denham et al., Transactions of the Royal Society of Tropical Medicine and Hygiene 73, 673-676 (1979).

B16 cells = experiment: Melanotic Melanoma B16 test; type: in vivo, B6C3-F1 mice; conditions: dosing as in P388/0 test, active if ≥125%
Text: Methods for evaluating the antitumor activity of these compounds are essentially those used in the Tumor Panel by the Development Therapeutics Program, Division of Cancer Treatment, National Cancer Institute, A. Goldin, et al., Methods in Cancer Research, Vol. XVI, p. 165, Academic Press (1979). Some modifications in dose level and schedule have been made to increase the testing efficiency.
B6C3-F1 mice of the same sex, weighing 20+3 g, are used for this test. A suspension of B16 cells is prepared from a non-necrotic portion of solid tumor tissue obtained from a passage mouse. One gram of tumour is homogenized in 9 mL ice-cold Earle's salts solution and filtered through 1000 mesh screen to remove debris. 0.5 mL of the resulting brei is injected intraperitoneally into each animal. Dosing is carried out as in the P388/0 and L1210 tests. Days of death are recorded for a 60 day period, and T/C ratio calculated as in the P388/0 and L1210 tests. The criterion for activity is T/C×100≥125%.

LD50 Tests = conditions: in vivo; IP single dose - CD1 Male Mouse
Text: |(IP single dose - CD1 Male Mouse)

Herpes simplex 1/vero = Herpes simplex 1/vero plaque inhibition screen; type: cell-based
Text: Antiviral testing against Herpes simplex 1/vero was done using plaque inhibition methods as outlined in P. Collins and D. J. Bauer, Proc. N.Y. Acad. Sci. 284, 49 (1977) and by plaque reduction methods as outlined in P. Collins and D. J. Bauer, J. Antimicrobiol Chemotherapy 3, Supplement A, 73, (1977). The column headings labeled Score, Toxicity, and Zone of Inhibition refer to the plaque inhibition screen while the IC50 heading to the plaque reduction screen.

[6] = read-out: Result (screen code, inhibition)

C[C@H](O)[C@@](C)(CO)NCc1ccc2ccc3cccc4ccc1c2c34 (relative stereo) [Example 20G, (+-)(2R*,3S*)-2-((1-Pyrenylmethyl)amino)-2-methyl-1,3-butanediol hydrochloride]
LD20 (LD20 in the P388/0 test): 125

CC(C)(CO)NCc1ccc2ccc3cccc4ccc1c2c34 [Example 2A, 2-methyl-2-((1-pyrenylmethyl)amino)propanol hydrochloride]
LD20 (LD20 in the P388/0 test; hydrochloride): 170
MIC [1]: ≤ 5 µg/mL
MIC [2]: 10 µg/mL
MIC [3]: 10 µg/mL
inhibition at 40 µg/mL (Trichomonas vaginalis): 51 to 75%
MIC [4]: 10 µg/mL
inhibition at 5 µg/mL (Eimeria tenella; in vitro): 26 to 50%
MIC [5]: 3.1 µg/mL
inhibition at 3.1 µg/mL ([5]; 3.1 mg/L, read-out: Result (screen code, inhibition)): 76 to 100%

CC(C)(CO)NCc1ccc2ccc3cccc4ccc1c2c34 [Example 2B, 2-Methyl-2-((1-pyrenylmethyl)amino)propanol]
LD20 (LD20 in the P388/0 test): 450

OCCCNCc1ccc2ccc3cccc4ccc1c2c34 [Example 3, 3-((1-pyrenylmethyl)amino)propanol hydrochloride]
LD20 (LD20 in the P388/0 test): 450
MIC [1]: < 5 µg/mL
MIC [2]: 10 µg/mL
MIC [3]: 30 µg/mL
inhibition at 6.25 µg/mL (Trichomonas vaginalis; 6.25 mg/L): 76 to 100%
MIC [4]: 1 µg/mL
MIC [5]: 0.78 µg/mL
inhibition at 0.78 µg/mL ([5]; 0.78 mg/L, read-out: Result (screen code, inhibition)): 76 to 100%

CC(C)C(CO)NCc1ccc2ccc3cccc4ccc1c2c34 (stereo not shown) [Example 4, 3-Methyl-2-((1-pyrenylmethyl)amino)butanol hydrochloride]
LD20 (LD20 in the P388/0 test): 450
MIC [4]: 10 µg/mL
inhibition at 12.5 µg/mL [5, 6]: 26 to 50%

CCC(CO)(CO)NCc1ccc2ccc3cccc4ccc1c2c34 [Example 5A, 2-Ethyl-2-((1-pyrenylmethyl)amino)-1,3-propanediol hydrochloride]
LD20 (LD20 in the P388/0 test): 225
T/C × 100% Excluding 60 day Survivors (B16 cells; 225 mg/kg): +159%
MIC [1]: 3 µg/mL
MIC [2]: 3 µg/mL
MIC [3]: 50 µg/mL
inhibition at 40 µg/mL (Trichomonas vaginalis): 51 to 75%
MIC [4]: 100 µg/mL
LD50 (LD50 Tests): 160 mg/kg

CCC(CO)NCc1ccc2ccc3cccc4ccc1c2c34 (stereo not shown) [Example 6, 2-((1-Pyrenylmethyl)amino)butanol hydrochloride]
LD20 (LD20 in the P388/0 test): 450
Score (Herpes simplex 1/vero): -2 (26-50% inhibition)
MIC [1]: 10 µg/mL
MIC [3]: 50 µg/mL
inhibition at 40 µg/mL (Trichomonas vaginalis): 76 to 100%
LD50 (LD50 Tests): 350 mg/kg

CC(CO)NCc1ccc2ccc3cccc4ccc1c2c34 (stereo not shown) [Example 7, 2-((1-Pyrenylmethyl)amino)propanol hydrochloride]
LD20 (LD20 in the P388/0 test): 600
MIC [1]: ≤ 5 µg/mL
MIC [3]: 50 µg/mL

CC(O)CNCc1ccc2ccc3cccc4ccc1c2c34 (stereo not shown) [Example 8, 1-((1-pyrenylmethyl)amino)-2-propanol hydrochloride]
LD20 (LD20 in the P388/0 test): 600
MIC [1]: 10 µg/mL
MIC [3]: 50 µg/mL

CCC(O)CNCc1ccc2ccc3cccc4ccc1c2c34 (stereo not shown) [Example 9, 1-((1-Pyrenylmethyl)amino)-2-butanol hydrochloride]
MIC [1]: 10 µg/mL
MIC [2]: 10 µg/mL
MIC [3]: 10 µg/mL
inhibition at 40 µg/mL (Trichomonas vaginalis): 26 to 50%
MIC [4]: 50 µg/mL
LD50 (LD50 Tests): 350 mg/kg

OCC(CO)(CO)NCc1ccc2ccc3cccc4ccc1c2c34 [Example 10, 2-Hydroxymethyl-2-((1-pyrenylmethyl)amino)-1,3-propanediol hydrochloride]
LD20 (LD20 in the P388/0 test): 215
T/C × 100% Excluding 60 day Survivors (B16 cells; 150 mg/kg): +133%
MIC [1]: > 50 µg/mL
MIC [2]: 5 µg/mL
MIC [3]: > 50 µg/mL
MIC [4]: ≥ 50 µg/mL
inhibition at 0.37 µg/mL (Eimeria tenella): 76 to 100%
LD50 (LD50 Tests): 160 mg/kg

OCC(CO)NCc1ccc2ccc3cccc4ccc1c2c34 [Example 11, 2-((1-Pyrenylmethyl)amino)-1,3-propanediol hydrochloride]
LD20 (LD20 in the P388/0 test): 450
MIC [1]: 10 µg/mL
MIC [2]: 5 µg/mL
MIC [3]: 50 µg/mL
inhibition at 40 µg/mL (Trichomonas vaginalis): 76 to 100%
MIC [4]: ≥ 50 µg/mL
inhibition at 5 µg/mL (Eimeria tenella; in vitro): 76 to 100%
LD50 (LD50 Tests): 250 mg/kg

CC(C)(O)CNCc1ccc2ccc3cccc4ccc1c2c34 [Example 12, 2-(((1-Pyrenylmethyl)amino)methyl)-2-propanol hydrochloride]
MIC [1]: > 50 µg/mL
MIC [3]: > 50 µg/mL
inhibition at 5 µg/mL (Eimeria tenella; in vitro): 76 to 100%
inhibition at 12.5 µg/mL [5, 6]: 26 to 50%

OCCNCc1ccc2ccc3cccc4ccc1c2c34 [Example 13, 2-((1-Pyrenylmethyl)amino)ethanol hydrochloride]
LD20 (LD20 in the P388/0 test): 220
MIC [1]: 5 µg/mL
MIC [2]: 5 µg/mL
MIC [3]: 10 µg/mL
MIC [4]: 50 µg/mL
inhibition at 5 µg/mL (Eimeria tenella; in vitro): 26 to 50%
LD50 (LD50 Tests): 160 mg/kg

CC(O)CCNCc1ccc2ccc3cccc4ccc1c2c34 (stereo not shown) [Example 14, 4-((1-Pyrenylmethyl)amino)-2-butanol hydrochloride]
MIC [1]: 10 µg/mL
MIC [2]: ≤ 5 µg/mL
MIC [3]: 50 µg/mL
MIC [4]: 50 µg/mL
inhibition at 0.31 µg/mL (Eimeria tenella; 0.31 mg/L, in vitro): 26 to 50%
LD50 (LD50 Tests): 130 mg/kg

CC(=O)OCC(COC(C)=O)(COC(C)=O)NCc1ccc2ccc3cccc4ccc1c2c34 [Example 15, 2-Acetoxymethyl-1,3,-O-diacetyl-2-((1-pyrenylmethyl)amino)-1,3-propanediol]
MTD (LD20 in the P388/0 test): 500 mg/kg
MIC [1]: ≤ 10 µg/mL
MIC [3]: > 50 µg/mL

CCC(COC(C)=O)(COC(C)=O)NCc1ccc2ccc3cccc4ccc1c2c34 [Example 16, 2-Ethyl-2-((1-pyrenylmethyl)amino)-1,3-propanediol diacetate]
MTD (LD20 in the P388/0 test): 675 mg/kg
Score (Herpes simplex 1/vero): -4 (76-100% inhibition)

CC(=O)OCC(C)(COC(C)=O)NCc1ccc2ccc3cccc4ccc1c2c34 [Example 18, 2-methyl-2-(1-pyrenylmethyl)amino)-1,3-propanediol diacetate]
MTD (LD20 in the P388/0 test): 300 mg/kg
Score (Herpes simplex 1/vero): -3 (51-75% inhibition)
Zone of Inhibition (Herpes simplex 1/vero): 30
MIC [1]: ≤ 10 µg/mL
MIC [2]: 30 µg/mL

CC(CO)(CO)NCc1cc2cccc3ccc4cccc1c4c32 [Example 19, 2-methyl-2-((4-pyrenylmethyl)amino)-1,3-propanediol hydrochloride.1/4H2 O]
LD20 (LD20 in the P388/0 test): 45
MIC [1]: 10 µg/mL
MIC [3]: 30 µg/mL

CCOCC(CO)(CO)NCc1ccc2ccc3cccc4ccc1c2c34 [Example 21C, 2-Ethoxymethyl-2-((1-pyrenylmethyl)amino)-1,3-propanediol hydrochloride 1/3H2 O]
LD20 (LD20 in the P388/0 test): 225

COCC(C)(CO)NCc1ccc2ccc3cccc4ccc1c2c34 (stereo not shown) [Example 22D, 3-methoxy-2-methyl-2-((1-pyrenylmethyl)amino)-1-propanol methanesulfonate.1/3H2 O]
LD20 (LD20 in the P388/0 test): 135

O[C@@H]1CCC[C@H](O)[C@H]1NCc1ccc2ccc3cccc4ccc1c2c34 [Example 23B, (1α,2β,3α)-2-((1-Pyrenylmethyl)amino)-1,3-cyclohexanediolmethanesulfonate]
LD20 (LD20 in the P388/0 test): 180
